Test results from ChEMBL document CHEMBL1140843, “Discovery of new inhibitors of D-alanine:D-alanine ligase by structure-based virtual screening” (J Med Chem, 2008).
≈ marks a conversion by molar mass, not a printed value. Calls of active or inactive are those of the source. The calls are words filed in the database; no cut-off is given here.

Tests used:
Escherichia coli [1] = assay: Antibacterial activity against Escherichia coli SM1411 after 16 hrs broth microdilution method; format: functional
[2] = Inhibition of Escherichia coli DdlB
Escherichia coli [3] = assay: Inhibition of Escherichia coli DdlB at 250 uM preincubated for 15 mins before substrate addition measured after 20 mins
Staphylococcus aureus = assay: Antibacterial activity against Staphylococcus aureus 8325-4 after 16 hrs broth microdilution method; format: functional; conditions: 8325-4, 16 h
Escherichia coli [4] = assay: Antibacterial activity against Escherichia coli 1411 after 16 hrs broth microdilution method; format: functional

| MIC (Escherichia coli [1]) [µg/mL] | Activity (Escherichia coli [3]) | MIC (Staphylococcus aureus) [µg/mL] | MIC (Escherichia coli [4]) [µg/mL] | Structure (SMILES) | Ki [2] [µM] |
| --- | --- | --- | --- | --- | --- |
| 64 (≈ 138 µM) | Active | 32 (≈ 69.1 µM) |  | COc1ccc2nc3cc(Cl)ccc3c(Nc3ccc(O)c(CN4CCN(C)CC4)c3)c2c1 | 218 |
|  |  |  |  | C[C@@H](N)C(=O)NP(=O)(O)O | 50 |
|  |  |  |  | C/C(O)=C(\C#N)C(=O)Nc1cc(Br)ccc1Br | 185 |
|  |  |  |  | O=C(/N=N/C(=O)Nc1ccc(Cl)cc1)NCc1cccnc1 | 33 |
| 8 (≈ 24 µM) | Active | 32 (≈ 96 µM) | 32 (≈ 96 µM) | COc1ccc2c(c1)c1c(C)c3cnccc3c(C)c1n2CCCN | 11 |
|  |  |  |  | CC(C)(CCl)C(=O)Nc1ccc(C(F)(F)F)cc1 | 4 |
|  |  |  |  | N[C@@H](C[C@H]1C[C@]1(C(=O)O)c1ccccc1)C(=O)O | 12.5 |
|  |  |  |  | CS[C@@H](CP(=O)(O)[C@@H](C)N)C(=O)O | 4 |
|  |  |  |  | N[C@@H]1CONC1=O [CYCLOSERINE] | 22 |
